The text below walks through data of patent US6656958B2, “Substituted pyridine compounds useful for controlling chemical synaptic transmission” (Abbott Laboratories, priority 2000, dated 2003).

pKi: −log10 of the molar value.

Data set [1] concerns the target neuronal nicotinic acetylcholine receptors (Rattus norvegicus, UniProt P09483+P12390). The experiment in a line: [3H]-cytisine binding to neuronal nicotinic acetylcholine receptors, crude synaptic membranes from whole rat brain. The settings on record: [3H]-CYT 1.25 nM, 60 minutes at 4° C., K1 from IC50 by Cheng and Prusoff correction. As to the method:
The in vitro protocols for determination of nicotinic acetylcholine channel receptor binding potencies of ligands was determined as follows.
Binding of [^3H]-cytisine ([^3H]-CYT) to neuronal nicotinic acetylcholine receptors was accomplished using crude synaptic membrane preparations from whole rat brain (Pabreza et al., Molecular Pharmacol., 1990, 39:9). Washed membranes were stored at −80° C. prior to use. Frozen aliquots were slowly thawed and resuspended in 20 volumes of buffer (containing: 120 mM NaCl, 5 mM KCl, 2 mM MgCl2, 2 mM CaCl2 and 50 mM Tris-Cl, pH 7.4 @4° C.). After centrifuging at 20,000×g for 15 minutes, the pellets were resuspended in 30 volumes of buffer.
The test compounds were dissolved in water to make 10 mM stock solutions.
Samples were incubated for 60 minutes at 4° C., then rapidly filtered through Whatman GF/B filters presoaked in 0.5% polyethyleneimine using 3×4 mL of ice-cold buffer. The filters are counted in 4 mL of Ecolume® (ICN). Nonspecific binding was determined in the presence of 10 μM (−)-nicotine and values were expressed as a percentage of total binding. IC50 values were determined with a four-parameter non-linear regression and IC50 values were converted to K1 values using the Cheng and Prusoff correction (K1=IC50/(1+[ligand]/Kd of ligand).
Each Example number corresponds to the synthetic Examples described above.

Data set [2] has as its system mice (hot plate paradigm). The experiment in a line: mouse hot plate paradigm (analgesia, tenth jump latency). The class given is in vivo. The note with it: footnote symbols: no significant effect at the stated dose, intraperitoneal, 30 minutes prior to testing, hot plate 55° C. As to the method: An in vivo protocol was utilized to determine the effectiveness of nicotinic acetylcholine receptor ligands as analgesic agents in the mouse hot plate paradigm.
Separate groups of mice, (n=8/group) were utilized for each dose group. All drugs were administered by the intraperitoneal route of administration. Test drugs were dissolved in water to make a 6.2 mM stock solution. Animals were dosed with this solution (10 mL/kg body weight) for a 62 micromol/kg dose. Lower doses were administered similarly, following serial dilution of the stock solution in half-log increments. Animals were dosed 30 minutes prior to testing in the hot plate. The hot-plate utilized was an automated analgesia monitor (Model #AHP16AN, Omnitech Electronics, Inc. of Columbus, Ohio). The temperature of the hot plate was maintained at 55° C. and a cut-off time of 180 seconds was utilized. A control was run against each compound tested. Latency until the tenth jump was recorded as the dependent measure. An increase in the tenth jump latency relative to the control was considered a significant effect.

Sequence of neuronal nicotinic acetylcholine receptors (P09483 31-630): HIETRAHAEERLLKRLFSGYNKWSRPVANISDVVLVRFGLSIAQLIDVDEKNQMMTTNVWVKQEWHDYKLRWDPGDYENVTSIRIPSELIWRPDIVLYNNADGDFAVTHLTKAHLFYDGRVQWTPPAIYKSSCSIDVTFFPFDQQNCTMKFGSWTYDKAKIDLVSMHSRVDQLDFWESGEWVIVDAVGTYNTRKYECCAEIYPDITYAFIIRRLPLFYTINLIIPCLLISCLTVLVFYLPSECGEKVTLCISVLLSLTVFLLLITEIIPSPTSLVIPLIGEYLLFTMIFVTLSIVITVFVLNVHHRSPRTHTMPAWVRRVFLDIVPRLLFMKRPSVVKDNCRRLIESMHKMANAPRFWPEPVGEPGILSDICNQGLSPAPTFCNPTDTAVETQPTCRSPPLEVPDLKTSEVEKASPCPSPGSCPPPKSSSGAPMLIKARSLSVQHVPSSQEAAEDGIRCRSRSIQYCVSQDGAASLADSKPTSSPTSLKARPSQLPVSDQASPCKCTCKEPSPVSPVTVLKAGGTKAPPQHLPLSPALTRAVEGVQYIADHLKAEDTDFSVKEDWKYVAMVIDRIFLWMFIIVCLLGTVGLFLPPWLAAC
Sequence of neuronal nicotinic acetylcholine receptors (P12390 25-500): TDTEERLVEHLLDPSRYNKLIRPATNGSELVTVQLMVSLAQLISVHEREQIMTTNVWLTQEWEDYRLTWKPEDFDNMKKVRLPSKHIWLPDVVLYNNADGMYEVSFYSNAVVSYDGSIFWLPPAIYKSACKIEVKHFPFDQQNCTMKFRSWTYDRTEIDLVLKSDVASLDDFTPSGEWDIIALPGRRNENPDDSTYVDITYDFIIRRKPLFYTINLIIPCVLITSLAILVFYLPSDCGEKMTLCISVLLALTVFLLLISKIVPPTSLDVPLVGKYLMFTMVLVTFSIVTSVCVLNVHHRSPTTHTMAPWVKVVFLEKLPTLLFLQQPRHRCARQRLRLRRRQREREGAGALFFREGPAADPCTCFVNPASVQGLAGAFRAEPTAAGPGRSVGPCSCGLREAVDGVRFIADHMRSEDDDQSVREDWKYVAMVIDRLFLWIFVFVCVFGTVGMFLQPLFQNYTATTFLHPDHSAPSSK

In data set [1], “5-[(S)-2-amino-1-propyloxy]-2-chloro-3-(4-vinylpyridinyl)pyridine p-toluenesulfonic acid [Example 13]” showed a pKi of 10.12.

The molecule `C[C@@H](COc1cnc(Cl)c(C=Cc2ccncc2)c1)N(C)C` (single isomer, unassigned) [Example 14] displayed a melting point of 79 to 81 °C. In addition, the “Analgesic MED (μmol/kg)” value in data set [2] is “* (no effect at 62)”.

`C[C@H](COc1cnc(Cl)c(C=Cc2ccncc2)c1)N(C)C` (single isomer, unassigned) [Example 39]: the melting point lay in the range of 81 to 83 °C. Further, the “Analgesic MED (μmol/kg)” value in data set [2] is listed as “* (no effect at 62)”.

Turning to `CN(C)[C@H](COc1cnc(Cl)c(C=Cc2ccncc2)c1)Cc1ccccc1` [Example 24, 5-[(S)-2-N-dimethyl-amino-3-phenyl-1-propyloxy]-2-chloro-3-(4-vinylpyridinyl)pyridine di-p-toluenesulfonic acid], the minimal effective dose in data set [2] (Mus musculus, ip, 0.5 h, read-out: Analgesic MED) was > 62 µmol/kg.

As for `C[C@@H](COc1ccc(Cl)nc1)N(C)C.Cc1ccc(S(=O)(=O)O)cc1` [Example 27, 5-[(S)-2-dimethylamino-1-propyloxy]-2-chloro pyridine p-toluenesulfonic acid], the “Analgesic MED (μmol/kg)” value in data set [2] is on record as “* (no effect at 62)”.

As usually defined, the pKi is the negative decadic logarithm of the Ki, by convention in mol/L. A high value points to a small Ki. The melting point is the temperature, or range, at which the solid turns liquid.
